Measured values: US20030170287A1, “Drug delivery systems for the prevention and treatment of vascular diseases” (priority 2002, published 2003)

Legend:
[1] = system: ballooned carotid of Sprague Dawley rats; test: Inhibition of restenosis at 14 days in the rat carotid stent model (perivascular local delivery); assay type: in vivo, Sprague Dawley rat; details: administered locally (perivascular, osmotic pump) at 10 to 200 μg/day
Procedure: A.3 Inhibition of Restenosis at 14 Days in the Rat Carotid Stent Model
Male Sprague Dawley rats weighing […] are housed individually and allowed to acclimate prior to surgery. All animals receive standard rat chow and water ad libitum. Group size is 12 animals per group.
The drug(s) administration is perivascular. A segment of ballooned carotid is encircled with a 1 cm length of silastic tubing (0.25 inch inside diameter, 0.47 inch outside diameter) to which is attached a catheter which feeds into an osmotic pump containing either compound or vehicle. This delivery system provides continuous, local delivery to the adventitia of the wrapped portion of vessel. Local drug(s) administration ranges between 5 μg and 10 mg, locally per day, depending on the solubility characteristics of the individual compounds. […]
Animals are killed at 14 days post-balloon injury. […] Animals are killed by administration of an overdose of ketamine and rompun, the osmotic pumps are recovered and the volume of remaining content is recorded to ensure that pump failure has not occurred.
Carotid arteries are excised and immersion fixed, then transferred to Ringer's solution. […] The intimal lesion area and the medial area are determined by measurement of the internal elastic lamina, the external elastic lamina and the vessel/lumen interface.

[2] = system: New Zealand White rabbit iliac arteries (balloon injury and stent); test: Inhibition of restenosis at 28 days in the rabbit iliac stent model; assay type: in vivo
Procedure: A.2 Inhibition of Restenosis at 28 Days in the Rabbit Iliac Stent Model
A combined angioplasty and stenting procedure is performed in New Zealand White rabbit iliac arteries. Iliac artery balloon injury is performed by inflating a 3.0 x 9.0 mm angioplasty balloon in the mid-portion of the artery followed by “pull-back” of the catheter for 1 balloon length. Balloon injury is repeated 2 times, and a 3.0×12 mm stent is deployed at 6 atm for 30 seconds in the iliac artery. Balloon injury and stent placement is then performed on the contralateral iliac artery in the same manner. A post-stent deployment angiogram is performed. All animals receive oral aspirin 40 mg/day daily as anti-platelet therapy and are fed standard low-cholesterol rabbit chow. Twenty-eight days after stenting, animals are anesthetized and euthanized and the arterial tree is perfused at 100 mmHg with lactated Ringer's for several minutes, then perfused with 10% formalin at 100 mmHg for 15 minutes. The vascular section between the distal aorta and the proximal femoral arteries is excised and cleaned of periadventitial tissue. The stented section of artery is embedded in plastic and sections are taken from the proximal, middle, and distal portions of each stent. All sections are stained with hematoxylin-eosin and Movat pentachrome stains. Computerized planimetry is performed to determine the area of the internal elastic lamina (IEL), external elastic lamina (EEL) and lumen. The neointima and neointimal thickness is measured both at and between the stent struts. The vessel area is measured as the area within the EEL. Data are expressed as mean±SEM. Statistical analysis of the histologic data is accomplished using analysis of variance (ANOVA) due to the fact that two stented arteries are measured per animal with a mean generated per animal. A P<0.05 is considered statistically significant.
A compound of formula I, e.g. 40-O-(2-hydroxyethyl)-rapamycin, is administered orally by gavage at a loading dose of 1.5 mg/kg one day prior to stenting, then dosed at 0.75 mg/kg/day from the day of stenting until day 27 post-stenting. In this model, the treatment with the compounds of formula I results in a marked reduction in the extent of restenotic lesion formation: for example, the treatment with 40-O-(2-hydroxyethyl)-rapamycin produces a significant (P<0.03) reduction in neointimal thickness (40% reduction), neointimal area (24% reduction), and percent arterial stenosis (26% reduction) with a significant 32% increase in lumen area. There is extensive neointimal formation in placebo-treated animals at 28 days, with the lesions consisting of abundant smooth muscle cells in proteoglycan/collagen matrix and apparent full endothelial healing.

[3] = Release of 40-O-(2-hydroxyethyl)-rapamycin from coated stents; assay type: physicochemical; details: PBS pH 7.4 or PEG/water 40/60 v/v, 37° C., solutions changed daily; stable = less than 10% of variation of the drug release
Procedure: Four 2 cm pieces of coated stents as described above are placed into 100 ml of phosphate buffer solution (PBS) having a pH of 7.4. Another 4 pieces from each series are placed into 100 ml polyethylene glycol (PEG)/water solution (40/60 v/v, MW of PEG=400). The stent pieces are incubated at 37° C. in a shaker. The buffer and PEG solutions are changed daily and different assays are performed on the solution to determine the released 40-O-(2-hydroxyethyl)-rapamycin concentrations. Such assays can show a stable release of 40-O-(2-hydroxyethyl)-rapamycin from coated stents for more than 45 days. By the term “stable release of 40-O-(2-hydroxyethyl)-rapamycin” is meant less than 10% of variation of the drug release. Controlled release techniques used by a person skilled in the art allow an unexpected easy adaptation of the required drug release rate. Thus, by selecting appropriate amounts of reactants in the coating mixture it is possible to easily control the bioeffectiveness of the rapamycin or rapamycin derivastive coated stents.

[4] = system: balloon injured rat carotid arteries; test: Inhibition of late neointimal lesion formation in the 28 day rat carotid artery balloon injury model; assay type: in vivo; details: for percent inhibition of neointimal lesion formation: 28 days post-balloon injury
Procedure: A1. Inhibition of Late Neointimal Lesion Formation in the 28 Day Rat Carotid Artery Balloon Injury Model
Compounds of formula I are tested in the following rat model.
Rats are dosed orally with placebo or a compound of formula I. Daily dosing starts 3 days prior to surgery and continues for 31 days. Rat carotid arteries are balloon injured using a method described by Clowes et al. Lab. Invest. 1983;49;208-215. Following sacrifice at 28 days post-balloon injury, carotid arteries are removed and processed for histologic and morphometric evaluation. […] For example for 40-O-(2-hydroxyethyl)-rapamycin administered at 0.5, 1.0, and 2.0 mg/kg, the percent inhibition is similar at all three doses: inhibition is 31% at the lowest dose (0.5 mg/kg) and 39% at the highest dose (2.0 mg/kg). Compounds of formula I, e.g. 40-O-(2-hydroxyethyl)-rapamycin, have the beneficial effect to inhibit lesions at 4 weeks post-ballooning.

[5] = system: dialysis patients with indwelling large bore catheter; test: Prevention or reduction of vascular access dysfunction after insertion of an indwelling catheter into the vein of a patient; assay type: in vivo; details: daily dose of 0.75 to 20 mg, 3 month treatment, observation period of 6 months
Procedure: A5. Prevention or Reduction of Vascular Access Dysfunction in Association with the Insertion of an Indwelling Catheter into the Vein of a Patient
One hundred fifty prospective dialysis patients, who undergo successful insertion of an indwelling, large bore catheter, into a vein are selected for the study. […] In addition, patients may also be given a calcium antagonist, nitrates and/or anti-platelet agents. These drugs are administered for 3 consecutive months following catheter insertion.

[6] = oral loading dose 1.5 mg/kg, then 0.75 mg/kg/day to day 27, 28 days after stenting, P<0.03

For `CO[C@H]1C[C@@H]2CC[C@@H](C)[C@@](O)(O2)C(=O)C(=O)N2CCCC[C@H]2C(=O)O[C@H]([C@H](C)C[C@@H]2CC[C@@H](OCCO)[C@H](OC)C2)CC(=O)[C@H](C)/C=C(\C)[C@@H](O)[C@@H](OC)C(=O)[C@H](C)C[C@H](C)/C=C/C=C/C=C/1C` [40-O-(2-hydroxyethyl)-rapamycin], which “neointimal lesion formation at 14 days post ballooning” value [1] is on record?
The value was “reduces neointimal lesion formation”.

And the “histology of the intima in arterial segments” value ([2]; majority of arterial segments, 28 days after stenting)?
Its value is “the intima is well healed”.

What about the “endothelialization of stented arteries (scanning electron microscopic analysis)” value ([2]; n=4 arteries, oral 1.5 mg/kg loading, 0.75 mg/kg/day, 28 days) of the same compound?
The value was 84%.

What about the “increase in lumen area” value ([2]; oral loading dose 1.5 mg/kg, then 0.75 mg/kg/day to day 27, 28 days after stenting) of the same compound?
The value was 32%.

What about the “reduction in neointimal area” value [2, 6] of the same compound?
The value was 24%.

What about the “reduction in neointimal thickness” value [2, 6] of the same compound?
The value was 40%.

And the “reduction in percent arterial stenosis” value [2, 6]?
The value was 26%.

And the “duration of stable release from coated stents” value [3]?
The value was “more than 45 days”.

What about the “percent inhibition of neointimal lesion formation” value ([4]; 0.5 mg/kg oral daily) of the same compound?
The value was 31%.

And the “percent inhibition of neointimal lesion formation” value ([4]; 2.0 mg/kg oral daily)?
Its value is 39%.

What about the “neointimal lesion formation at 28 days following balloon injury” value ([4]; oral dose of from 0.5 to 2.0 mg/kg) of the same compound?
The value was “significantly reduce neointimal lesion formation”.

What about the “prevention or reduction of vascular access dysfunction after catheter insertion” value [5] of the same compound?
The value was “demonstrate the efficacy”.
